One may read the IC50 as the concentration needed to halve the response being measured. The inhibition is the percentage by which the read-out fell short of the control.

The target of one assay is Recombinant human HSD17B13 enzyme (Homo sapiens (Human), UniProt Q7Z5P4). The assay is described as follows: HSD17b13 NAD(P)H-Glo Biochemical Assay. The conditions noted are these: 50 uM estradiol, 1 mM NAD+; read-out: HSD17β13 IC50. In short, it runs like this: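 Luminescent NAD(P)H-Glo detection (1 h, RT) quantified cofactor reduction after a 3 h, 37° C reaction of human HSD17B13 with estradiol (50 uM final) and NAD+ (1 mM final). Compounds were first pre-incubated 20 min at RT with enzyme in Tris pH 7.4 buffer containing Tween-20 and BSA.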
Recombinant human HSD17B13 enzyme, sequence (Q7Z5P4 20-300): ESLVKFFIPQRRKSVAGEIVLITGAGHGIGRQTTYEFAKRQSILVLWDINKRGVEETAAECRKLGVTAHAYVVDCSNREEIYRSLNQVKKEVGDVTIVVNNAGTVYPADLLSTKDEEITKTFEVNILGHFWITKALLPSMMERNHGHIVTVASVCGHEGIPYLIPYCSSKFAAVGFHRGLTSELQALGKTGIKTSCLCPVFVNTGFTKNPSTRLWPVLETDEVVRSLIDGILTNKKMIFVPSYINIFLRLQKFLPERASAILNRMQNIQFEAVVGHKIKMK
With `Cc1nn(-c2cc(C(F)(F)F)c(F)c(O)c2F)c2cnc(N3CCOCC34CC4)cc12` [Compound 19.44, 2,6-Difluoro-3-(3-methyl-5-(7-oxa-4-azaspiro[2.5]octan-4-yl)-1H-pyrazolo[3,4-c]pyridine-1-yl)-5-(trifluoromethyl)phenol], the IC50 was under 100 nM.
Same read-out and setting: to `Cc1nn(-c2cc(C(F)(F)F)c(F)c(O)c2F)c2cc(F)c(N3CCOCC34CC4)cc12` [Compound 19.67, 2,6-Difluoro-3-(6-fluoro-3-methyl-5-(7-oxa-4-azaspiro[2.5]octan-4-yl)-1H-indazol-1-yl)-5-(trifluoromethyl)phenol] belongs under 100 nM; to `O=C(O)c1ccccc1-c1ccc2c(cnn2-c2ccc(F)c(O)c2)c1` [Compound 5.23, 2-(1-(4-Fluoro-3-hydroxyphenyl)-1H-indazol-5-yl)benzoic acid], 1000 to 30000 nM.
Still for that read-out and setting: then `Oc1ccc(-c2ccc3c(cnn3-c3ccc(F)c(O)c3)c2)c(C(F)(F)F)c1` [Compound 5.16, 2-Fluoro-5-(5-(4-hydroxy-2-(trifluoromethyl)phenyl)-1H-indazol-1-yl)phenol], with 100 to 1000 nM; and `CC(=O)N1CC(Oc2ccc3c(cnn3-c3cc(O)c(F)c(F)c3)c2)C1` [Compound 24.01, 1-(3-((1-(3,4-Difluoro-5-hydroxyphenyl)-1H-indazol-5-yl)oxy)azetidin-1-yl)ethan-1-one], with 100 to 1000 nM.
Take `Cc1nn(-c2cc(O)c(F)c(C(N)=O)c2)c2cnc(N3CCOCC34CC4)cc12` [Compound 19.96, 2-Fluoro-3-hydroxy-5-(3-methyl-5-(7-oxa-4-azaspiro[2.5]octan-4-yl)-1H-pyrazolo[3,4-c]pyridin-1-yl)benzamide]: the IC50 was in the range of 1000 to 30000 nM.
The same measure, in the same setting: then `CS(=O)(=O)N1CCC(c2ccc3c(cnn3-c3cc(O)c(F)c(F)c3)c2)CC1` [Compound 27, 2,3-Difluoro-5-(5-(1-(methylsulfonyl)piperidin-4-yl)-1H-indazol-1-yl)phenol], with under 100 nM; and `CC1CN(S(C)(=O)=O)CCN1c1cc2cn(-c3cc(O)c(F)c(C(F)(F)F)c3)nc2cn1` (stereo not shown) [Compound 19.34, 2-Fluoro-5-(5-(2-methyl-4-(methylsulfonyl)piperazin-1-yl)-2H-pyrazolo[3,4-c]pyridine-2-yl)-3-(trifluoromethyl)phenol], with 100 to 1000 nM; and `Oc1ccc(-c2ncc3c(cnn3-c3ccc(F)c(O)c3)n2)c(Cl)c1` [Compound 5.27, 5-(5-(2-Chloro-4-hydroxyphenyl)-1H-pyrazolo[4,3-d]pyrimidin-1-yl)-2-fluorophenol], with 100 to 1000 nM.
Still for that read-out and setting: then `Oc1c(F)c(-n2nnc3cc(N4CCOCC45CC5)ncc32)cc(C(F)(F)F)c1F` [Compound 21.59, 3-(6-(7-Oxa-4-azaspiro[2.5]-octan-4-yl)-3H-[1,2,3]triazolo-[4,5-c]pyridin-3-yl)-2,6-difluoro-5-(trifluoromethyl)-phenol], with 100 to 1000 nM.
The same measure, in the same setting: to `CS(=O)(=O)N1CCN(c2cc3cn(-c4cc(O)c(F)cn4)nc3cn2)CC1` [Compound 19.20, 5-Fluoro-2-(5-(4-(methylsulfonyl)piperazin-1-yl)-2H-pyrazolo[3,4-c]pyridine-2-yl)pyridine-4-ol] belongs 1000 to 30000 nM.
As for `CS(=O)(=O)N1CCN(c2ccc3c(cnn3-c3cc(O)c(F)c(F)c3)c2Cl)CC1` [Compound 21.15, 5-(4-Chloro-5-(4-(methyl-sulfonyl)piperazin-1-yl)-1H-indazol-1-yl)-2,3-difluoro-phenol], the IC50 is 1000 to 30000 nM.
Still for that read-out and setting: to `Oc1ccc(-c2ccc3c(cnn3-c3ccc(F)c(O)c3F)c2)cc1Cl` [Compound 8, 3-(5-(3-Chloro-4-hydroxyphenyl)-1H-indazol-1-yl)-2,6-difluorophenol] belongs 100 to 1000 nM; to `Nc1ccc(-c2ccc3c(cnn3-c3ccc(F)c(O)c3)c2)c(Cl)c1` [Compound 9, 5-(5-(4-Amino-2-chlorophenyl)-1H-indazol-1-yl)-2-fluorophenol], 100 to 1000 nM; to `Cc1nn(-c2cc(C(F)(F)F)c(F)c(O)c2F)c2cnc(N3CCN(S(C)(=O)=O)CC34CC4)cc12` [Compound 19.53, 2,6-Difluoro-3-(3-methyl-5-(7-(methylsulfonyl)-4,7-diazaspiro[2.5]octan-4-yl)-1H-pyrazolo[3,4-c]pyridine-1-yl)-5-(trifluoromethyl)phenol], under 100 nM.
On the same count and under the same terms, to `Cc1nn(-c2cc(C(F)(F)F)c(F)c(O)c2F)c2cnc(N3CCN(S(=O)(=O)c4cnn(C)c4)CC3)cc12` [Compound 19.57, 2,6-Difluoro-3-(3-methyl-5-(4-((1-methyl-1H-pyrazol-4-yl)sulfonyl)piperazin-1-yl)-1H-pyrazolo[3,4-c]pyridin-1-yl)-5-(trifluoromethyl)phenol] belongs under 100 nM; to `Oc1cc(-n2ncc3cc(-c4ccccc4Cl)ccc32)ccc1F` [Compound 4.11, 5-(5-(2-Chlorophenyl)-1H-indazol-1-yl)-2-fluorophenol], 100 to 1000 nM.
The same measure, in the same setting: then `Cc1cc(-n2cc3cc(N4CCN(S(C)(=O)=O)CC4)ncc3n2)cc(O)c1F` [Compound 19.24, 2-Fluoro-3-methyl-5-(5-(4-(methylsulfonyl)piperazin-1-yl)-2H-pyrazolo[3,4-c]pyridine-2-yl)phenol], with 1000 to 30000 nM.

Still in this assay, the particulars now being: read-out: HSD17β13 inhibition at 30 uM.
With `CS(=O)(=O)N1CCN(c2cc3cn(-c4cc(O)cc(C#N)c4)nc3cn2)CC1` [Compound 19.35, 3-Hydroxy-5-(5-(4-(methylsulfonyl)piperazin-1-yl)-2H-pyrazolo[3,4-c]pyridine-2-yl)benzonitrile], the inhibition at 30 µM was 49%.
